Test results reported in the Kinase Knowledgebase extract (Sharma et al. 2016).
Values belong to the compound of their own block, whether it stands above or below them.

Biological target: MAPK14 (UniProt Q16539)
Test: p38 Kinase Inhibition

Sequence of MAPK14 (Q16539 whole entry, looked up): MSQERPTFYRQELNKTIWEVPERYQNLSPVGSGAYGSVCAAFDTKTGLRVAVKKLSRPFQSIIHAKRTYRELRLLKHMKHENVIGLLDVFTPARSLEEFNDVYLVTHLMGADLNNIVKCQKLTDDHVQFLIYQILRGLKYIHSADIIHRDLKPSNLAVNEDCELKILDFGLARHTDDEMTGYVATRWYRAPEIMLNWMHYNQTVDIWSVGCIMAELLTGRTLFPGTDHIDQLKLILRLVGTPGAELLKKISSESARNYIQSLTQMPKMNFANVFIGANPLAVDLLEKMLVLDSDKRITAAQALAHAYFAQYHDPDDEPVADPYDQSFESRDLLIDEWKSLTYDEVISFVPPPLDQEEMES

- IC50: < 50 µM
Structure (SMILES): Fc1ccc(Nc2nccc(-c3c(-c4ccc(F)cc4)ncn3-c3ccc(F)cc3)n2)cc1

- IC50: < 50 µM
Structure (SMILES): Fc1ccc(-c2ncn(-c3ccc(F)cc3)c2-c2ccnc(N3CCOC(Nc4ccccc4)C3)n2)cc1 (stereo not given)

- IC50: < 50 µM
Structure (SMILES): Cc1ccccc1Nc1nccc(-c2c(-c3ccc(F)cc3)ncn2-c2ccc(F)cc2)n1

- IC50: < 50 µM
Structure (SMILES): Cc1ccccc1Nc1nccc(-c2c(-c3ccc(F)cc3)ncn2C2CCNCC2)n1

- IC50: < 50 µM
Structure (SMILES): Fc1ccc(-c2ncn(-c3ccc(F)cc3)c2-c2ccnc(Nc3ccccc3)n2)cc1

- IC50: < 50 µM
Structure (SMILES): Fc1ccc(-c2ncn(C3CCCCC3)c2-c2ccnc(Nc3ccccc3)n2)cc1

- IC50: < 50 µM
Structure (SMILES): CC(C)n1cnc(-c2ccc(F)cc2)c1-c1ccnc(Nc2ccccc2)n1

- IC50: < 50 µM
Structure (SMILES): Cc1cccc(C)c1Nc1nccc(-c2c(-c3ccc(F)cc3)ncn2-c2ccc(F)cc2)n1

- IC50: < 50 µM
Structure (SMILES): Fc1ccc(-c2ncn(C3CCCC3)c2-c2ccnc(Nc3ccccc3)n2)cc1

The next lines start with the compound.

Structure (SMILES): Fc1ccc(-c2ncn(C3CCCCC3)c2-c2ccnc(NCCCN3CCOCC3)n2)cc1
- IC50: < 50 µM

Structure (SMILES): O=C(Nc1cccc(C(F)(F)F)c1)N1CCC(n2cnc(-c3ccc(F)cc3)c2-c2ccnc(Nc3ccccc3C(F)(F)F)n2)CC1
- IC50: < 50 µM

Structure (SMILES): Cc1cccc(C)c1Nc1nccc(-c2c(-c3ccc(F)cc3)ncn2C2CCNCC2)n1
- IC50: < 50 µM

Structure (SMILES): Fc1ccc(-c2ncn(C3CCCCC3)c2-c2ccnc(NCc3cccnc3)n2)cc1
- IC50: < 50 µM

Structure (SMILES): Fc1ccc(-c2ncn(C3CCCCC3)c2-c2ccnc(NCCC(c3ccccc3)c3ccccc3)n2)cc1
- IC50: < 50 µM

Structure (SMILES): COc1ccc(C(=O)NCCn2cnc(-c3ccc(F)cc3)c2-c2ccnc(NCc3ccc(Cl)c(Cl)c3)n2)cc1OC
- IC50: < 50 µM

Structure (SMILES): Cc1cc(F)ccc1Nc1nccc(-c2c(-c3ccc(F)cc3)ncn2C2CCN(C(=O)OC(C)(C)C)CC2)n1
- IC50: < 50 µM

Structure (SMILES): CCOCC(=O)NCCn1cnc(-c2ccc(F)cc2)c1-c1ccnc(NCc2ccc(OC)cc2)n1
- IC50: < 50 µM

Structure (SMILES): Fc1ccc(-c2ncn(C3CCCCC3)c2-c2ccnc(NCCc3c[nH]cn3)n2)cc1
- IC50: < 50 µM

Structure (SMILES): Cc1ccc(F)cc1Nc1nccc(-c2c(-c3ccc(F)cc3)ncn2C2CCNCC2)n1
- IC50: < 50 µM

Structure (SMILES): CC(CCc1ccccc1)Nc1nccc(-c2c(-c3ccc(F)cc3)ncn2C2CCCCC2)n1 (stereo not given)
- IC50: < 50 µM
